Data: ChEMBL document CHEMBL1201862, “PubChem BioAssay data set” (2004)
Activity calls are given as the source filed them.

What was measured:
[1] = target: T1, Mitochondrial peptide methionine sulfoxide reductase (Bos taurus, UniProt P54149); assay: Absorbance-based biochemical high throughput dose response assay for activators of Methionine sulfoxide reductase A (MsrA).; assay type: functional
T1 sequence (P54149 whole entry): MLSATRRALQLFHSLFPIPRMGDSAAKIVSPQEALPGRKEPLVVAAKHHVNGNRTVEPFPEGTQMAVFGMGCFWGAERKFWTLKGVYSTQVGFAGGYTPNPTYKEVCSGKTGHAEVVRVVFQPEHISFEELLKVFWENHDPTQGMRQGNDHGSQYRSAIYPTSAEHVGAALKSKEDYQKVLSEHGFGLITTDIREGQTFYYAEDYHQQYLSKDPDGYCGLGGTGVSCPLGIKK

[2] = target: T2, Tyrosyl-DNA phosphodiesterase 2 (Homo sapiens, UniProt O95551); assay: human TDP2 enzyme inhibitors, dose response, biochemical, epi absorbance, IC50 (AID 743297)
T2 sequence (O95551 whole entry): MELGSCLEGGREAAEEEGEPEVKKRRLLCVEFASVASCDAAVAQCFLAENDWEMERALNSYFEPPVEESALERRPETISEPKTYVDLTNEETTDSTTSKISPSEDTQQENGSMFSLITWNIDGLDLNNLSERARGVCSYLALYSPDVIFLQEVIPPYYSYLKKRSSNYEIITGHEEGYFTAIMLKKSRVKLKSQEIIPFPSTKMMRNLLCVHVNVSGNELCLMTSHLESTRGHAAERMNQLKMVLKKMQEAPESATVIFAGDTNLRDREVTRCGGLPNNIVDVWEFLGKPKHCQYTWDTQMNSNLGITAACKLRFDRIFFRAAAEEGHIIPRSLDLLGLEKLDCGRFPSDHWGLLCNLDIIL

Beta-galactosidase [3] = target: T3, Beta-galactosidase (Escherichia coli, UniProt Q8VNN2); assay: beta-galactosidase enzyme inhibitors and activators, dose response, artefact control for CCR6 antagonist project, biochemical, E. coli enzyme, set 3 (AID 504712); assay type: functional
[4] = target: Induced myeloid leukemia cell differentiation protein Mcl-1 (Homo sapiens, UniProt Q07820); assay type: functional
[5] = growth suppression of PTEN-null colon cells, dose response, cell-based, HCT116 PTEN knockout (AID 1047); assay type: functional;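 further: HCT116 colon tumor cells with PTEN knocked out; cells exposed to compound for 60 hours before readout; potency for loss of cell viability measured by luminescence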
[6] = growth suppression of beta-catenin-knockout colon cells, dose response, cell-based, HCT116, human colon tumor (AID 1045); assay type: functional;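 further: HCT116 colon tumor cells with beta catenin knocked out; cells exposed to compound for 60 hours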
Streptokinase A = target: T4, Streptokinase A (Streptococcus pyogenes serotype M1, UniProt P10520); assay: S. pyogenes streptokinase expression inhibitors, potency, dose response, plasminogen activation absorbance, OD405 (AID 1914); assay type: functional, Streptococcus pyogenes M1 GAS;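 further: secreted streptokinase activity via plasminogen activation per viability signal from cell pellet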
T4 sequence (P10520 whole entry): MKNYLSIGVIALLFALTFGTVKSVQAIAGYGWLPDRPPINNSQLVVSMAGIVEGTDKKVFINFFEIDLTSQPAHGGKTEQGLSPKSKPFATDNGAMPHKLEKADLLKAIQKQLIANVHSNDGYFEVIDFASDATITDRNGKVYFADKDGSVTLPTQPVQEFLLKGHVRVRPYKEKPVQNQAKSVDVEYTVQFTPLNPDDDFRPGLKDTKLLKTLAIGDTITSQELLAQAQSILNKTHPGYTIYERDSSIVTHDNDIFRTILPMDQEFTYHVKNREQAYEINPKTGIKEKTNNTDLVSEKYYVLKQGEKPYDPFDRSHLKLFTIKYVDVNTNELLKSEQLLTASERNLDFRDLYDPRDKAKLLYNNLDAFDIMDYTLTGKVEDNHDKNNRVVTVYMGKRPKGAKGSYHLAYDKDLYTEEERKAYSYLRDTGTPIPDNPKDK

[7] = target: T5, C-C chemokine receptor type 6 (Homo sapiens, UniProt P51684); assay: CCR6 receptor antagonists, dose response, cell-based, luminescent beta-arrestin readout (AID 504728); assay type: functional
T5 sequence (P51684 whole entry): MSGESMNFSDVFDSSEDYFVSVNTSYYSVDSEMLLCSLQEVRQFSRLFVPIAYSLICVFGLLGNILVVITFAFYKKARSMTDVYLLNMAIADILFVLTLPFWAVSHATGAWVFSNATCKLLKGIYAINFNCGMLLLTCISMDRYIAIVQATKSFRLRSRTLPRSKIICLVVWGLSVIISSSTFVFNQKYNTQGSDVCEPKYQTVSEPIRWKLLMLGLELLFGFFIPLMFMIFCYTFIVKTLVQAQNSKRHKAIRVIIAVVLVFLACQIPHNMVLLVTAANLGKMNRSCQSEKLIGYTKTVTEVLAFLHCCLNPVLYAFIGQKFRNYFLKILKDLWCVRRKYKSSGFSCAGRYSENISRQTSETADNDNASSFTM

[8] = target: Peroxisome proliferator-activated receptor gamma/Nuclear receptor coactivator 1 (Homo sapiens, UniProt P37231); assay type: functional;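 further: agonist potency as compounds enhance coactivator SRC-1 recruitment to PPARgamma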
[9] = MC4R antagonists, dose response, counter-screen for LGR2 antagonist project, cell-based, plate reader, cherry pick (AID 743444); assay type: functional;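 further: transfected HEK 293 cells stimulated with alpha-MSH peptide; potency of inhibitors of the alpha-MSH evoked signal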
HEK293 = assay: cells; assay type: functional, cell-based; conditions: Homo sapiens
[10] = target: Protein kinase C delta type (Homo sapiens, UniProt Q05655); assay type: functional
[11] = target: Serine/threonine-protein kinase pim-1 (Homo sapiens, UniProt P11309); assay type: functional
[12] = target: Mitogen-activated protein kinase kinase kinase kinase 2 (Homo sapiens, UniProt Q12851); assay type: functional;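 further: measured as one member of a kinome-wide kinase panel, with MAP4K2 as the panel entry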
[13] = target: Death-associated protein kinase 3 (Homo sapiens, UniProt O43293); assay type: functional;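 further: measured as one member of a kinome-wide profiling panel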
LIM domain kinase 1 = LIM domain kinase 1 (Homo sapiens, UniProt P53667); assay: Navigating the Kinome. Panel member name: LIMK1; assay type: functional
[14] = target: Lymphokine-activated killer T-cell-originated protein kinase (Homo sapiens, UniProt Q96KB5); assay type: functional;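 further: value comes from a kinase panel screen in which TOPK was one of the panel members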
[15] = target: Tyrosine-protein kinase JAK2 (Homo sapiens, UniProt O60674); assay type: functional;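 further: JAK2 tested as one member of a kinase panel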
[16] = target: Ribosomal protein S6 kinase alpha-3 (Homo sapiens, UniProt P51812); assay type: functional;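 further: measured within a kinome-wide profiling panel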
[17] = target: MAP kinase-activated protein kinase 3 (Homo sapiens, UniProt Q16644); assay type: functional;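 further: value comes from a kinome-wide profiling panel in which MAPKAPK3 is one of the panel members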
Focal adhesion kinase 1 = Focal adhesion kinase 1 (Homo sapiens, UniProt Q05397); assay type: functional;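 further: measured as one member of a kinome panel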
SRSF protein kinase 1 = SRSF protein kinase 1 (Homo sapiens, UniProt Q96SB4); assay type: functional;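 further: measured as one member of a kinome-wide kinase profiling panel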
[18] = NIH-3T3 fibroblast cytotoxicity, dose response, cytotoxicity control, cell-based, fluorescence, Alamar Blue, secondary assay (AID 2327); assay type: functional;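 further: NIH-3T3 mouse fibroblasts cultured with fluconazole at 8 µg/mL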
[19] = cytotoxicity toward NIH3T3 fibroblasts, dose response, counter-screen, cell-based, ATP luminescence, mouse fibroblasts (AID 2010); assay type: functional;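 further: cells exposed to compound for about 90 hours before reading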
Beta-galactosidase [20] = target: T3, Beta-galactosidase; assay: PubChem AID 485352; assay type: functional

T3 sequence (Q8VNN2 whole entry): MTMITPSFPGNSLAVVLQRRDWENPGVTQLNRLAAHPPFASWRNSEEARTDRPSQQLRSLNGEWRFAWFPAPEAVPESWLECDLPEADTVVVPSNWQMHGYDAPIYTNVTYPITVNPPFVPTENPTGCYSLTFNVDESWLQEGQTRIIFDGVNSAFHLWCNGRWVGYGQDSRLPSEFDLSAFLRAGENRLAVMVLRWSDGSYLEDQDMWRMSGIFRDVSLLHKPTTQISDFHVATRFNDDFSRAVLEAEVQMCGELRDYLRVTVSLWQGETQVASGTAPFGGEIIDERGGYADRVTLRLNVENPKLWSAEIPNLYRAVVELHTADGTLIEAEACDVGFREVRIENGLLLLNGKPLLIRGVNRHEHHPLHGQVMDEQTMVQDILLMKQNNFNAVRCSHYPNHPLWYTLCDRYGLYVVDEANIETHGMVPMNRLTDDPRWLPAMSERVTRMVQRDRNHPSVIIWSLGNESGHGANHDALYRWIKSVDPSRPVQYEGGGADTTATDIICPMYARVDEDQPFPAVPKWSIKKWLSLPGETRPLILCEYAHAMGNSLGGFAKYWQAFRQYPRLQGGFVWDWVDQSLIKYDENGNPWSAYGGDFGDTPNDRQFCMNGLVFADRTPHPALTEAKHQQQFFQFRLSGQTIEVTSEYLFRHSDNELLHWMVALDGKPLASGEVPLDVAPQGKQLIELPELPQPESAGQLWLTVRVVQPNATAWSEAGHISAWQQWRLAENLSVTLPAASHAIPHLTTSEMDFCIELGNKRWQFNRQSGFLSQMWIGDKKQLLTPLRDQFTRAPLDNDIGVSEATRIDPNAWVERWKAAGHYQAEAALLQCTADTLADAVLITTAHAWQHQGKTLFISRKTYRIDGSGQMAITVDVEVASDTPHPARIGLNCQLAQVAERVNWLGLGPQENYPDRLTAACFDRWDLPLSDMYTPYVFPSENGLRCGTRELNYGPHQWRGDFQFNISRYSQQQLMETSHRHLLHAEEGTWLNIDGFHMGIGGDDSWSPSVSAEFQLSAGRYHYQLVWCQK
Focal adhesion kinase 1, sequence (Q05397 whole entry): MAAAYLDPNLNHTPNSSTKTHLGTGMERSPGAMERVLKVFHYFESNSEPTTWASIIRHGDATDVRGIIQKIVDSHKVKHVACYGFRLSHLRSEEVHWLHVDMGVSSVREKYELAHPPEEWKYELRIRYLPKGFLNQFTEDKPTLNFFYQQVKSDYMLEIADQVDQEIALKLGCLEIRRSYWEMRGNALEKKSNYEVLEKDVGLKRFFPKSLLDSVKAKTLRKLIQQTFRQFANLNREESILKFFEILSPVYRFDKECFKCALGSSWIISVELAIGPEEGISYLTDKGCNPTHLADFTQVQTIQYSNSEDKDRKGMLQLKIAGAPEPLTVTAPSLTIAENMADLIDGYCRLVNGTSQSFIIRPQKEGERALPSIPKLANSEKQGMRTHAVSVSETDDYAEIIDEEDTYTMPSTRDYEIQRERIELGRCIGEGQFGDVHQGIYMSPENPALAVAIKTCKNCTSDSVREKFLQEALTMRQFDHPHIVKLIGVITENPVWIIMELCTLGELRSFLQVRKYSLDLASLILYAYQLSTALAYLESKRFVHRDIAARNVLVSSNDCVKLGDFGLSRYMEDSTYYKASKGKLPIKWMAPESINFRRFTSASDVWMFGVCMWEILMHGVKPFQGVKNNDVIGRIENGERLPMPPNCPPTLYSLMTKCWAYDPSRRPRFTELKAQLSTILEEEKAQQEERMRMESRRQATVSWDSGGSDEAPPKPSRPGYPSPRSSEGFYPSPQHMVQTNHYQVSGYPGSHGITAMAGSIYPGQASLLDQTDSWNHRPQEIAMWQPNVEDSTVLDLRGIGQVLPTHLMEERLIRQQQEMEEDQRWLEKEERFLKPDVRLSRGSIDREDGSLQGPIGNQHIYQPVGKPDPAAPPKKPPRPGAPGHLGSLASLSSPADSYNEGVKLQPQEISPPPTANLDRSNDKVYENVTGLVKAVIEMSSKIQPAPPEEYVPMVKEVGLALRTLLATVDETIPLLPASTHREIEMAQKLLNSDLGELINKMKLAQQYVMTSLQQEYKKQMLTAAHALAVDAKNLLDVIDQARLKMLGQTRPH
Induced myeloid leukemia cell differentiation protein Mcl-1, sequence (Q07820 whole entry): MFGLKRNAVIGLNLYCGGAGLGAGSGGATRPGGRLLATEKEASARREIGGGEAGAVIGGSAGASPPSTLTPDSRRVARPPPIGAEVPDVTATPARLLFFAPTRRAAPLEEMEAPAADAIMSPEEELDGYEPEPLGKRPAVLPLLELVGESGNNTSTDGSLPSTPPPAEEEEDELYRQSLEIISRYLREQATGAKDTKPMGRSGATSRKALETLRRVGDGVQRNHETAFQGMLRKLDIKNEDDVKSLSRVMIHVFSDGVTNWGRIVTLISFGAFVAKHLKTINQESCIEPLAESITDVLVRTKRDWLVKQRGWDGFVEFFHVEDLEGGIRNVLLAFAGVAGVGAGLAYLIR
Tyrosine-protein kinase JAK2, sequence (O60674 whole entry): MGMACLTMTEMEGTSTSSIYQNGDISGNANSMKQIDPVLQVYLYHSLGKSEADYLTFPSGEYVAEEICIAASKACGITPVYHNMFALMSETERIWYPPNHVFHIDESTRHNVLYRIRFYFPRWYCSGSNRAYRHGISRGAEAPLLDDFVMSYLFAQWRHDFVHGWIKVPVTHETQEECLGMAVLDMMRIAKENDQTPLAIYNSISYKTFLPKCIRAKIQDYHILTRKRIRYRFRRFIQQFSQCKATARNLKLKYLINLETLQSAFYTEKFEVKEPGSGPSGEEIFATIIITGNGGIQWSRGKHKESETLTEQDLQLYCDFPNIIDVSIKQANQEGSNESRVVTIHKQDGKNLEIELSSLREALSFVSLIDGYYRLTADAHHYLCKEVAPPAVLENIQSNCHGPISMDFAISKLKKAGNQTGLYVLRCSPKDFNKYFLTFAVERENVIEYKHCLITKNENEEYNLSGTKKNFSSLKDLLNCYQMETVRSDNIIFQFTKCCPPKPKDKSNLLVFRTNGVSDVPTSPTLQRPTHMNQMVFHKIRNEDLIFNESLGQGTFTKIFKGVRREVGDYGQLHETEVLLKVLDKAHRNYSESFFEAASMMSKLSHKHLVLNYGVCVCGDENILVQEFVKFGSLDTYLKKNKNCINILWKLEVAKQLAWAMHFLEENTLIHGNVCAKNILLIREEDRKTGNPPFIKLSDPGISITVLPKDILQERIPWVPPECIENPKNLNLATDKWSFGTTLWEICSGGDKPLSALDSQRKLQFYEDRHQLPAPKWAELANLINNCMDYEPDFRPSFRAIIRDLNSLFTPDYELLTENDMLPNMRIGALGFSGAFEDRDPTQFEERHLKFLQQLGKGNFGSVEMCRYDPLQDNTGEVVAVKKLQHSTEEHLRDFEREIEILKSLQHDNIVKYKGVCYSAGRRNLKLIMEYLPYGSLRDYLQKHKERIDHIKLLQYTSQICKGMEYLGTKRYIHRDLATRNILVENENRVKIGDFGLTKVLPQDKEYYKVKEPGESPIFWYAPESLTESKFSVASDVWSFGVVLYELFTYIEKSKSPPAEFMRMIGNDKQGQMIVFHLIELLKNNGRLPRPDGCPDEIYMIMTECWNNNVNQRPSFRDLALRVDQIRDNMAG
MAP kinase-activated protein kinase 3, sequence (Q16644 whole entry): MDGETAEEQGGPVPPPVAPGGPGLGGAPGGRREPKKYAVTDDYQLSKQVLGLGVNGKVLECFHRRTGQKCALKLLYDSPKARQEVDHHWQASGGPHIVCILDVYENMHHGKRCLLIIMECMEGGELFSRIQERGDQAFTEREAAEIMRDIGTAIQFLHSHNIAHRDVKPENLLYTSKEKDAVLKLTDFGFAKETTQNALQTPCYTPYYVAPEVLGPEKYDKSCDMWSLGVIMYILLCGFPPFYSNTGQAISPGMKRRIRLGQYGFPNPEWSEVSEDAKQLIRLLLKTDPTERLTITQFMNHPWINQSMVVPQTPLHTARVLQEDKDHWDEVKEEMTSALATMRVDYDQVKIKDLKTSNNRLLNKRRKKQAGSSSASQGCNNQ
LIM domain kinase 1, sequence (P53667 whole entry, the tested form may be a part): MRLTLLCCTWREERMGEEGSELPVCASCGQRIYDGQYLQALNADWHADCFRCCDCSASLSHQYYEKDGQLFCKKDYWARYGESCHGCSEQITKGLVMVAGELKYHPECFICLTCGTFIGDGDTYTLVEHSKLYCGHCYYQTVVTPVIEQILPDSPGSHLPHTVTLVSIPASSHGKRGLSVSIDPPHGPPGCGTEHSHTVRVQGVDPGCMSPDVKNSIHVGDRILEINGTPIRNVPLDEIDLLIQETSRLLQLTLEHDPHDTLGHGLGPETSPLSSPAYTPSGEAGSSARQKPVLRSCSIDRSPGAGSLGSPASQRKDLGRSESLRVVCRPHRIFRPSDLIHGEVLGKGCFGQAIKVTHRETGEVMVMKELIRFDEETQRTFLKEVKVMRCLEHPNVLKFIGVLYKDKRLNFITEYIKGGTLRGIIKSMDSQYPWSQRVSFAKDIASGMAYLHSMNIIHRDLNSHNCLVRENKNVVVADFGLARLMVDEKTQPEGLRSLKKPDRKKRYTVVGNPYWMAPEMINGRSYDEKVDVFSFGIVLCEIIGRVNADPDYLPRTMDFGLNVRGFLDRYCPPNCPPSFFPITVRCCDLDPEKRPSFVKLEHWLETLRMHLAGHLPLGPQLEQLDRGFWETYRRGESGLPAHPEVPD
Death-associated protein kinase 3, sequence (O43293 whole entry, the tested form may be a part): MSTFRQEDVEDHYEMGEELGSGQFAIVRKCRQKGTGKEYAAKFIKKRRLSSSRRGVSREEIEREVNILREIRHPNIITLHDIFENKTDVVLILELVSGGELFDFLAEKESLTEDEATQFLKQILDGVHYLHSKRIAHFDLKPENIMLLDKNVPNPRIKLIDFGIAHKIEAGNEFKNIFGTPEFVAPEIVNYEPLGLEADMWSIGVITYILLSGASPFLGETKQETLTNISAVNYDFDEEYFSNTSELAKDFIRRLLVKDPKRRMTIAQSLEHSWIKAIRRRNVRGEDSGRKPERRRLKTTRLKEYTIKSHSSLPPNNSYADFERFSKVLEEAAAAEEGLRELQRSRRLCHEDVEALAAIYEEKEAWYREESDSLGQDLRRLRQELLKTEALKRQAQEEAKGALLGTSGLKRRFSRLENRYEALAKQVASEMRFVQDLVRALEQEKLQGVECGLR

O=C1C(Cl)=C(NCc2cccnc2)C(=O)c2ccccc21
EC50 [1]: > 104 µM (inactive)

Nc1ccc(Br)c2cccnc12
IC50 [2]: 75.5 µM (inactive)

CN(C)c1ncc(C2=C(Cl)C(=O)C(N3CCCC3)=C(Cl)C2=O)s1
IC50 (Beta-galactosidase [3]): > 66.6 µM (inactive) | IC50 [4]: 26.4 µM (active) | EC50 [5]: 5.41 µM (active) | EC50 [6]: 6.06 µM (active) | EC50 (Streptokinase A): > 150 µM (not active) | IC50 [7]: > 66.6 µM (inactive) | EC50 [8]: > 79.4 µM (not active)

Cc1ccc(C(=O)c2c(C)oc3c2C(=O)C(=O)c2ccccc2-3)cc1
EC50 [5]: 3.11 µM (active) | EC50 [6]: 2.66 µM (active) | EC50 (Streptokinase A): > 150 µM (not active)

Cc1cnc(NC(=O)c2sc3ccccc3c2Cl)s1
AC50 [9]: 3.25 µM (active)

O=C1C(O)=C/C(=N\c2ccccc2O)c2ccccc21
EC50 (Streptokinase A): 132 µM (active) | IC50 [2]: 37.7 µM (inactive) | EC50 [1]: > 104 µM (inactive) | IC50 (HEK293): > 20 µM (inactive)

O=C1NC(=S)SC1=C1C(=O)Nc2ccc(Br)cc21
Ki [10]: > 7.94 µM (inactive) | Ki [11]: 0.0631 µM (active) | Ki [12]: > 6.31 µM (inactive) | Ki [13]: 0.2 µM (active) | Ki (LIM domain kinase 1): 3.98 µM (active) | Ki [14]: 7.94 µM (active) | Ki [15]: > 1.58 µM (inactive) | Ki [16]: > 7.94 µM (inactive) | Ki [17]: > 10 µM (inactive) | Ki (Focal adhesion kinase 1): > 1.58 µM (inactive) | Ki (SRSF protein kinase 1): 6.31 µM (active)

Cc1ccc(Nc2cc(C)nn2-c2nc(C)cc(O)n2)cc1
EC50 [18]: 1.76 µM (inconclusive) | EC50 [19]: 0.497 µM (active) | EC50 (Beta-galactosidase [20]): > 40 µM (inactive)
